{"source": "patent US12304897B2", "about": "“15-PGDH inhibitors” (KYORIN PHARMACEUTICAL CO., LTD., priority 2019, dated 2025)", "note": "pIC50: −log10 of the molar value.", "data": [{"target": "recombinant human 15-PGDH (Homo sapiens (Human), UniProt P15428)", "sequence (P15428 whole entry)": "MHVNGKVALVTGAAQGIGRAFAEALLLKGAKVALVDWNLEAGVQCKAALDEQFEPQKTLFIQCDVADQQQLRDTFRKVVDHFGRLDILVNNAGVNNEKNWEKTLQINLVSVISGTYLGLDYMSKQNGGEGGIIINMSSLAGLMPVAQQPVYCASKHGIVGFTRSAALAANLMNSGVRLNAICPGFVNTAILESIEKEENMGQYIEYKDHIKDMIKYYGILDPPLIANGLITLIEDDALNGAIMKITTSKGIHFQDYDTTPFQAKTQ", "assay": "15-PGDH enzyme inhibition test", "type": "biochemical", "conditions": "4 nM recombinant human 15-PGDH, 30 μM PGE2, 1 mM NAD+, fluorescence 340/440 nm after 60 min", "description": "15-PGDH Enzyme Inhibition Test\nTest compounds and 4 nM recombinant human 15-PGDH (R&D systems) in 50 mM Tris-HCl (pH 8.0) containing 0.01% TWEEN 20 (Sigma) and 0.01% bovine gamma globulin (Sigma) were put into 384 Flat Bottom Black plates (Corning, 3820) and allowed to stand for 12 minutes at room temperature. Then, 30 μM PGE2 (Cayman chemical) and 1 mM NAD^+ (Sigma) were added to start reaction. Sixty minutes after the start of reaction, signals were measured at an excitation wavelength of 340 nm and a fluorescence emission wavelength of 440 nm using Synergy 2 (BioTeck). The intensity of the fluorescent signal obtained when an assay buffer was added in place of the test compounds and NAD^+ was defined as 100% and that obtained with the addition of NAD^+ was defined as 0%.", "values": [{"smiles": "O=C(c1cnc2c(-c3ccn4c(=O)ccnc4c3)cccc2c1)N1CCC(F)(F)CC1", "note": "[compound 160]", "pIC50": "> 8.52"}, {"smiles": "O=C(c1ccc2c(-c3ccc4c(=O)[nH]ncc4c3)cccc2c1)N1C[C@H]2CCC[C@H]2C1", "note": "[compound 122]", "pIC50": "> 8.52"}, {"smiles": "CN1Cc2cc(-c3cccc4cc(C(=O)N5CCC(F)(F)CC5)ccc34)cnc2C1=O", "note": "[compound 78]", "pIC50": "> 8.52"}, {"smiles": "CN1CCC2(CCN(c3cccc4cc(C(=O)N5CCCCC5)ccc34)CC2)C1=O", "note": "[compound 79]", "pIC50": "≤ 8.00"}, {"smiles": "O=C(c1ccc2c(-c3ccc4c(c3)CN(CC3CC3)C4=O)cccc2c1)N1CCC(F)(F)CC1", "note": "[compound 55]", "pIC50": "> 8.52"}, {"smiles": "Cn1nc2n(c1=O)CCN(c1cccc3cc(C(=O)N4CCC[C@H](C(F)(F)F)C4)ccc13)C2", "note": "[compound 3]", "pIC50": "> 8.52"}, {"smiles": "CCN(CC)C(=O)c1ccc2c(-c3ccc4c(=O)[nH]ncc4c3)cccc2c1", "note": "[compound 155]", "pIC50": "> 8.52"}, {"smiles": "CN1Cc2cc(-c3coc4cc(C(=O)N5CCCCC5)ccc34)ccc2C1=O", "note": "[compound 9]", "pIC50": "> 8.52"}]}]}
